Assay results taken from patent US20110236381A1, “INHIBITION OF INTER-ALPHA TRYPSIN INHIBITOR FOR THE TREATMENT OF AIRWAY DISEASE” (priority 2008, published 2011).
“Also recorded” adds a separate entry of the source.

Legend:
naive C57BL/6J mice [1] = test: HA challenge: oropharyngeal instillation of hyaluronan into naive mice, AHR measured invasively; type: in vivo; settings: 50 μl of 0.5 mg/ml oropharyngeal, AHR 2-4 hours later, compared to vehicle
Experimental: (§1) HA challenge: Sterile, endotoxin-free (0.00008 EU/ml) high molecular weight hyaluronan (HMW-HA) (Healon, AMO, Santa Ana, Calif.) was reconstituted at 0.5 mg/ml in 0.02 M acetate/0.15 M sodium chloride, pH 6.0. For the production of low molecular weight (also known as short-fragment) hyaluronan (sHA), healon was sonicated on ice. Sizes were confirmed by electrophoresis according to known methods (Lee and Cowman Anal Biochem 219(2):278-287, 1994). In some experiments, 50 μl of HMW-HA, sHA, or vehicle were instilled oropharyngeally into isoflurane-anesthetized mice, and AHR was measured invasively 2-4 hours later. In other experiments, 50 μl of HMW-HA or vehicle was instilled 1 hour before and 23 hours after acute ozone exposure, and AHR was measured invasively 24 hours after ozone exposure.
(§2) Airway Physiology: Twenty four hours after the beginning of exposure, tracheas of anesthetized mice (pentobarbital sodium, 60 mg/kg i.p.) were surgically dissected and intubated, mice were paralyzed (pancuronium bromide, […] i.v.) and ventilated with a computer-controlled small animal ventilator (FlexiVent™, SCIREQ, Montreal, Canada) at a tidal volume of 7.5 ml/kg and a positive end-expiratory pressure of 3 cm H2O. Forced oscillation was used for measurements of respiratory mechanics. […]

CD44-deficient mice = test: HA challenge in CD44-deficient mice, AHR; type: in vivo; settings: sHA instillation
Experimental: as §1, §2

naive C57BL/6J mice [2] = test: Lung lavage cells after sHA instillation; type: in vivo; settings: compared to vehicle
Experimental: as §1
Whole lung lavage: Whole lung lavage was performed according to previously described methods (Hollingsworth et al., Am J Respir Crit Care Med 170(2):126-132, 2004). Supernatants were stored at −70° C.

C57BL/6J mice = test: Ozone-induced AHR, total lung resistance to methacholine (FlexiVent); type: in vivo; settings: 50 μl instilled 1 hour before and 23 hours after acute ozone exposure; AHR 24 hours after ozone; vs vehicle
Description: Exposure Protocol: C57BL/6J, CD44−/−, IaI−/− or HAS2 transgenic mice (mice that overexpress HAS2) were exposed to either Hepa-filtered air (FA) or ozone. Animals were housed in cages with low-endotoxin bedding, and given water and chow ad libitum. Ozone exposures were two parts per million (ppm) for three hours. The selection of ozone concentration levels in the mouse was based on similar biological responses observed in human exposure studies and published deposition fraction data for 03 in rodent models (Wiester et al., Toxicol Appl Pharmacol 96(1):140-146, 1988). Exposures were performed in 55-liter Hinner chambers with individual animal slots. […] Chamber ozone concentration was monitored continuously with a UV light photometer (1003AH, Dasibi, Glendale, Calif.). […]
as §1, with “For the production of low molecular weight (also known as short-fragment) hyaluronan (sHA), healon was sonicated on ice. Sizes were confirmed by electrophoresis according to known methods (Lee and Cowman Anal Biochem 219(2):278-287, 1994).” left out, “exposure. […]” for “exposure.”

[3] = in vivo; cited from earlier work

Row | Substance | induction of AHR in naive mice (naive C57BL/6J mice [1]) | sHA-induced AHR in CD44-deficient mice compared to C57BL/6 (CD44-deficient mice) | total cells or cell composition in lung lavage fluid after instillation (naive C57BL/6J mice [2]) | ozone-induced AHR with hyaluronan instilled before and after ozone (C57BL/6J mice) | bronchoconstrictive response in exercise-induced asthma [3]
1 | short-fragment hyaluronan [sHA] | induced AHR | resistant to sHA-induced AHR | significant changes in total cells or cell composition in the lung lavage fluid were not observed; also recorded: a significant change was not observed in any cell type | – | –
2 | high molecular weight hyaluronan [HMW-HA] | – | – | – | significantly ameliorates AHR; also recorded: significant attenuation of AHR | attenuate the bronchoconstrictive response
